Assay results reported in patent publication US9415067B2, “Genetic test for liver copper accumulation in dogs and low copper pet diet” (Mars, Inc., priority 2009, dated 2016).

How the values were obtained:
[1] = test system: canine dermal fibroblast cells ATP7A^C/C, ATP7A^C/T, ATP7A^T/T; assay: 64Cu incorporation and efflux (washout) in canine primary dermal fibroblasts, gamma counting; type: cell-based, dog; settings: 100 μM
Description: FIGS. 7A and 7B show copper isotope measurements in canine primary fibroblast cells. Copper isotope (64Cu) measurements in ATP7A^C/C, ATP7A^C/T and ATP7A^T/T cells after (A) 24 h or 48 h incubation with 10 μM, 50 μM and 100 μM 64Cu, or (B) 24 hrs incubation, followed by extensive washing and incubation in non copper isotope media for 2 h. Gamma-counts were corrected for cell culture conditions by means of a protein and MTS assay. Data points for 24 hr incubation represent the mean+/−SEM from two independent experiments performed in duplicate and expressed as counts per minute (cpm) of total cell protein. Other data points represent mean+/−SEM from one experiment in duplicate.
The canine dermal fibroblast cells CDFIB44, CDFIB62 and CDFIB111 were isolated from euthanized female Labradors. Blood samples, taken prior to euthanizing were subject to the genetic test of the invention to ascertain increased risk to the disease. CDFIB111 was homozygous for the ATP7A SNP and CDFIB62 was heterozygote. […] was used as a control. […]
For copper treatment, cells were incubated in 10, 50, and 100 μM copper for 24 or 48 h. […] Emission was measured in individual tubes containing media, washing steps, or lysate in a Packard B5003 gamma counter (Packard BioScience Benelux, Groningen, the Netherlands) between 450 and 800 keV for 2 minutes. […] Cells were then analysed for copper as described above. Copper accumulation was normalized to the protein concentration of the cell lysate (quantified using a Bio Rad Protein Assay Kit, Bio Rad) and an MTS colorimetric assay (3-[4,5-dimethylthiazol-2-yl]-5-[3-carboxymethoxyphenyl]-2-[4-sulfophenyl]-2H-tetrazolium) (Promega) was run in parallel. This quantitative assay detects living but not dead cells. The absorbance at 490 nm (test wavelength) and at 650 nm (reference wavelength) was measured using an enzyme-linked immunosorbent assay microplate reader (Bio-Rad); wells containing culture medium but no cells served as blanks. […]

[2] = test system: hepatic copper accumulation; assay: Diet trial with randomized placebo-controlled zinc application: quantitative hepatic copper by neutron activation analysis of liver biopsies; type: in vivo, dog
Description: All dogs were fed the same diet. […] The pharmacist was the only person aware of group allocations until completion of the study. Hepatic copper concentrations and histopathology were assessed along with clinical examinations and blood-work before and after treatment for a mean of 8 months (range 5-13), and 16 months (range 12-25). Plasma zinc concentrations were measured at additional time points during treatment.
All dogs had completed their treatment with penicillamine prior to the start of this study. A medical history was obtained from all dogs and a physical examination was performed. […] Two biopsies were fixed in 10 percent neutral buffered formalin, and one biopsy was stored in a copper-free container for quantitative copper determination.
A quantitative assay for copper in liver tissue was performed by neutron activation analysis, according to a protocol described by Teske et al, using the facilities described by Bode (Bode, P. (1990) Journal of Trace and Microprobe Techniques 8: 139; Teske et al. (1992) Vet Rec 131: 30-32). Quantitative copper concentrations were measured in lyophilised liver biopsies and reported in mg/kg dry weight liver.
All dog owners were provided with the same specially manufactured diet. […] Metabolizable energy (measured according to Association of American Feed Control Officials protocol): 1650 kcal/kg as fed). […]

[3] = Pharmacokinetic study of oral zinc gluconate, plasma zinc by atomic absorption spectrometry; type: in vivo; settings: mean of dog 1 and dog 2
Description: Two unrelated nine-year old, healthy Labrador Retrievers (1 female and 1 male) were used in a pharmacokinetic study. Food was withheld for a 12-hour period prior to oral administration of zinc, and during the initial 6-hour testing period. Water was freely available. […] Heparinized blood samples (4 ml) were collected from the jugular vein before dosing (time 0) and 15, 30, 45, 60, 90, 120 minutes, and 4, 8, 12 and 24 hours after application of the drug. Plasma was stored at −20° C. until analysis for zinc using atomic absorption spectrometry.
In addition the test was used to detect a difference between group-1 and group-2 before the study, at recheck-1, and at recheck-2 (significance level p<0.05).

[4] = test system: hepatic copper accumulation; assay: Example 7: hepatic copper before penicillamine, after penicillamine and after diet; type: in vivo, dog; settings: all dogs fed the diet of Example 6, data not shown
Description: FIG. 3 illustrates the effectiveness of the diet of the invention on hepatic copper concentrations (mg/kg dry weight) in 18 Labrador Retrievers compared with the effect of penicillamine alone. The key to the x-axis is as follows: 1=pre-penicillamine, 2=post-penicillamine/pre-food, 3=post-food. […] The dotted line represents the normal level of hepatic copper for adult dogs.
During an investigation of the effect of zinc on hepatic copper concentration, hepatic copper concentration was measured in 18 pure-bred Labrador Retrievers. Half of the dogs were provided with a supplement of zinc and the other half were provided with a placebo. All of the dogs were fed the diet of Example 6. Hepatic copper 25 concentration was measured using the method of Example 6 at 3 time points: (1) before treatment with penicillamine; (2) after treatment with penicillamine but before treatment with the diet of Example 6; and (3) after the diet treatment.

[5] = 24 h incubation, 2 h of washout

[64Cu] [Cu64]
isotope retained by ATP7A^C/C cells [1, 5]: approximately 45% | isotope retained by ATP7A^T/T cells [1, 5]: ~90% | increase in incorporation of copper in ATP7A^T/T and ATP7A^C/T cells compared to ATP7A^C/C cells ([1]; after 24 h and 48 h): approximately two-fold

CC(C)(S)[C@@H](N)C(=O)O [penicillamine]
mean hepatic copper concentration after completion of treatment with penicillamine ([2]; 24 Labradors at the start of the diet trial, reference range 400 mg/kg dry weight): 894 mg/kg dry weight

zinc gluconate
effect of adjunctive zinc on the de-coppering effect of the diet ([2]; diet + zinc gluconate 7.5 mg/kg PO BID versus diet + placebo): did not amplify the de-coppering effect | apparent oral clearance (CL/F) [3]: 2.116898 mL/min/kg | difference between copper levels in dogs treated with zinc and with the placebo [4]: no significant difference
